Assay results taken from article PMC6451745, “Development and dosimetry of ^203Pb/^212Pb-labelled PSMA ligands: bringing “the lead” into PSMA-targeted alpha therapy?” (European Journal of Nuclear Medicine and Molecular Imaging, 2019).
Several values for one entry are separate records, joined by “and”; a condition that tells them apart may be missing. Identical values can stand only once.

Legend:
PSMA = target: T1, PSMA (Homo sapiens, UniProt Q04609); experiment: Competitive binding assay on C4-2 cells; conditions: reference ^68Ga-labelled PSMA-HBED-CC dimer (PSMA-10), mean ± SD
T1 construct: host or cells: C4-2 cells (LNCaP subline)
Experimental: (§1) In vitro and in vivo experiments were performed using the PSMA-positive C4-2 cell line, a subline of the LNCaP (lymph node carcinoma of the prostate) cell line (CRL-3314; American Type Culture Collection). C4-2 cells were cultivated in RPMI-1640 (PAN Biotech) supplemented with 10% fetal calf serum and stable glutamine (PAN Biotech). Cells were grown at 37 °C and incubated in humidified air equilibrated with 5% CO2.
A MultiScreenHTS-DV filter plate was incubated at room temperature with 100 μl phosphate-buffered saline (PBS) containing 1% bovine serum albumin (BSA) per well for 30 min. After removal of the PBS/BSA solution, 1 × 10^5 C4-2 cells in Opti-MEM were added to each well. All nonlabelled compounds were dissolved in 300 μl Opti-MEM at the following concentrations: 0, 0.5, 1, 2.5, 5, 10, 25, 50, 100, 500, 1,000 and 5,000 nM. Subsequently, 3 μl of the radiolabelled compound was added, and 50 μl of this mixture was taken to obtain a solution containing 0.75 nM of the radiolabelled ligand. After 45 min incubation at 37 °C, the cells were washed twice with PBS, the radioactivity accumulated in the cells was collected, and the remaining radioactivity was measured in a gamma counter. The inhibitory potency was determined using ^68Ga-labelled PSMA-HBED-CC dimer (i.e. PSMA-10) as the reference. The 50% inhibitory concentration was calculated using a nonlinear regression algorithm (GraphPad Prism 5.01 software). The experiments were performed in quadruplicate.

C4-2 cells = experiment: Determination of specific internalization ratio; assay type: cell-based
Experimental: as §1
For determination of the specific internalization ratio, 24-well plates were incubated for 20 min with 0.1% poly-L-lysine in PBS at room temperature and washed once with PBS. In the next step, 1 ml RPMI containing 1 × 10^5 C4-2 cells was added to each well and incubated overnight. The conditions during the experiment for each compound were: incubation at 37 °C or 4 °C with or without receptor blocking via 2-(phosphonomethyl)pentanedioic acid (2-PMPA; Axxora) at a final concentration of 500 μM. The cells were then incubated with 250 μl of a 30 nM solution of ^203Pb-labelled compound. The plates were incubated either for 45 min in a water bath at 37 °C or on ice at 4 °C. The cells were then washed three times with 1 ml ice-cold PBS and incubated with 0.5 ml glycine (50 mM in HCl, pH 2.8) for 5 min. After an additional washing step with 1 ml ice-cold PBS, the cells were lysed with 0.5 ml 0.3 M NaOH and collected, and the radioactivity was measured with a gamma counter for 1 min. The specific cellular uptake was determined as the percentage of initially added radioactivity bound per 10^6 cells (%IA/10^6 cells) by subtraction of the respective uptake under blocking conditions. All experiments were performed in triplicate.

C4-2 tumour-bearing mice = experiment: Biodistribution (organ distribution) in tumour-bearing mice; assay type: in vivo; conditions: 0.025 nmol i.v., C4-2 tumour-bearing mice, n = 3
Experimental: The in vivo experiments were carried out in accordance with the laws on animal welfare of the Federal Republic of Germany. For imaging and biodistribution studies, male BALB/c nu/nu mice (20–25 g; Charles River) bearing C4-2 tumour xenografts were used. The mice were inoculated subcutaneously in the right trunk with 5 × 10^6 C4-2 cells in 50% Matrigel in Opti-MEM (1×). For small-animal imaging the mice were anaesthetized with 2% sevoflurane, and then 0.1 nmol (1.0 MBq) of the respective ^203Pb ligand was injected into a tail vein. Serial planar scans were performed using a Gamma Imager-sct (Biospace Lab, Paris, France) with a parallel collimator (35 mm/1.8 mm/0.2 mm) after 10 min, 1 h, 4 h and 24 h. Based on the imaging results, compound CA012 was chosen for biodistribution studies. Experiments were performed in triplicate. For biodistribution, 0.025 nmol (1 MBq) of labelled compound per mouse was administered by injection into a tail vein. After 10 min, 1 h, 4 h and 24 h the mice were killed, the organs were dissected and weighed, and activity was measured using a gamma counter (Packard Cobra Auto-gamma). The organ uptakes were calculated as the percentage of the injected dose per gram of tissue (%ID/g).

[1] = system: patients with castration-resistant metastasized prostate cancer; experiment: ^203Pb-CA012 dosimetry from planar whole-body scans in patients (QDOSE/OLINDA); assay type: in vivo, human; conditions: diagnostic ^203Pb, two patients, male adult phantom in OLINDA
Experimental: OLINDA calculations were performed for all nuclides individually.

[2] = system: patients with castration-resistant metastasized prostate cancer; experiment: Dosimetry extrapolated from ^203Pb-CA012 to ^212Pb-CA012
Experimental: Images were loaded into the QDOSE dosimetry software suite (ABX-CRO, Dresden) and coregistered. […] These ROIs were used to determine time–activity curves (TAC) for each organ, tumours and the total body. The first time-point (before voiding) of the uncorrected geometric mean images was used to calibrate the ROI counts in relation to the injected activity. The red marrow TAC was calculated from venous blood (six samples per patient) using established model assumptions [10, 11].
Biexponential curve fitting was applied to all organ TACs (with the exception of a few tumours and glands which had to be fitted monoexponentially). The accumulated activity was integrated assuming a linear increase from time 0 to the first measured time-point, numerically from the first to the last measured time-point using trapezoidal approximations and from the last measured time-point to infinity using the fit function. The activity in the remainder of the body was calculated by subtracting the activity of all source organs from that of the total body.
The residence times in the kidneys, liver, spleen, urinary bladder contents, red marrow and remainder of the body were exported for dose calculations in OLINDA 1.1, using the organ masses of the adult phantom [12].
OLINDA calculations were performed for all nuclides individually. […] Tumour and salivary gland volumes were measured individually based on CT segmentation and their absorbed doses were approximated using a power function interpolating the spherical model estimates [15].

[3] = ^203Pb-labelled compound 30 nM, 45 min, 2-PMPA blocking subtracted, mean ± SD n = 3
[4] = projected from therapeutic activity of 100 MBq
[5] = therapeutic ^212Pb incl. daughter nuclides, extrapolated from ^203Pb, RBE 5 for alpha, OLINDA male adult phantom

T1 sequence (Q04609 whole entry): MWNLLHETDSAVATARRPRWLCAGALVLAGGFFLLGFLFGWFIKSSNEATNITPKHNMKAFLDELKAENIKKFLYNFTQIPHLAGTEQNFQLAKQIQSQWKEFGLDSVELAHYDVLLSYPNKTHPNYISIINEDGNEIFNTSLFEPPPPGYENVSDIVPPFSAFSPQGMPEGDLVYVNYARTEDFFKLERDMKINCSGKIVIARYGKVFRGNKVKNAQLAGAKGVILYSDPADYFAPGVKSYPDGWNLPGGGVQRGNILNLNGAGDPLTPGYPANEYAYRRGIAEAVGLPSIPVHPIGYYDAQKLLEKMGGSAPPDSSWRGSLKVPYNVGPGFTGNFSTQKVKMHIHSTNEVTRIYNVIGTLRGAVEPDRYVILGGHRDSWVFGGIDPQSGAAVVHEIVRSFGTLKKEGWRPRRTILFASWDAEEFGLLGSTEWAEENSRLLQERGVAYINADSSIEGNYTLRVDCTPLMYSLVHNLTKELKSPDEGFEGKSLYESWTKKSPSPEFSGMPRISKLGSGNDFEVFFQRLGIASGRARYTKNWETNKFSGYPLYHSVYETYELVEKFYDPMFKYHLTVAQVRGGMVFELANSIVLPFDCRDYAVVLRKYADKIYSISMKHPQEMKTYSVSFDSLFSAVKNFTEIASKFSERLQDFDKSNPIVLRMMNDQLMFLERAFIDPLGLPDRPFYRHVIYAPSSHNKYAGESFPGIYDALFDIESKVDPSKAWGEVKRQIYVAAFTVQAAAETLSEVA

NC(=O)CN1CCN(CC(N)=O)CCN(CC(N)=O)C(Cc2ccc(NC(=S)NCC3CCC(C(=O)NC(Cc4ccc5ccccc5c4)C(=O)NCCCC[C@H](NC(=O)N[C@@H](CCC(=O)O)C(=O)O)C(=O)O)CC3)cc2)CN(CC(N)=O)CC1 (some centres unmarked) [CA009]
Ki (PSMA): 15.3 ± 3.1 nM
specific ligand-induced internalization (C4-2 cells): 27.4 ± 2.4 %IA/10^6 cells
Specific cell surface (C4-2 cells; [3]): 106.5 ± 2.8 %IA/10^6 cells
Specific lysate (specific internalization) (C4-2 cells; [3]): 27.4 ± 2.4 %IA/10^6 cells

NC(=O)CN1CCN(CC(N)=O)CCN(CC(=O)NCC2CCC(C(=O)NC(Cc3ccc4ccccc4c3)C(=O)NCCCC[C@H](NC(=O)N[C@@H](CCC(=O)O)C(=O)O)C(=O)O)CC2)CCN(CC(N)=O)CC1.[203Pb+2] (some centres unmarked) [^203Pb-CA012]
specific ligand-induced internalization (C4-2 cells): ~16 %IA/10^6 cells
Specific lysate (specific internalization) (C4-2 cells; [3]): 15.6 ± 2.1 %IA/10^6 cells
Organ distribution, Blood (C4-2 tumour-bearing mice; 10 min): 5.37 ± 1.95 % ID/g
Organ distribution, Brain (C4-2 tumour-bearing mice; 10 min): 0.14 ± 0.04 % ID/g
Organ distribution, Heart (C4-2 tumour-bearing mice; 10 min): 1.78 ± 0.66 % ID/g
Organ distribution, Kidneys (C4-2 tumour-bearing mice; 10 min): 26.97 ± 8.74 % ID/g
Organ distribution, Liver (C4-2 tumour-bearing mice; 10 min): 1.25 ± 0.43 % ID/g
Organ distribution, Lung (C4-2 tumour-bearing mice; 10 min): 4.31 ± 1.19 % ID/g
Organ distribution, Muscle (C4-2 tumour-bearing mice; 10 min): 1.20 ± 0.43 % ID/g
Organ distribution, Small intestine (C4-2 tumour-bearing mice; 10 min): 1.75 ± 0.48 % ID/g
Organ distribution, Spleen (C4-2 tumour-bearing mice; 10 min): 1.97 ± 1.07 % ID/g
Organ distribution, Tumor (C4-2 tumour-bearing mice; 10 min): 12.33 ± 1.92 % ID/g
Organ distribution, Blood (C4-2 tumour-bearing mice; 1 h): 0.26 ± 0.10 % ID/g
Organ distribution, Brain (C4-2 tumour-bearing mice; 1 h): 0.02 ± 0.00 % ID/g
Organ distribution, Heart (C4-2 tumour-bearing mice; 1 h): 0.10 ± 0.03 % ID/g
Organ distribution, Kidneys (C4-2 tumour-bearing mice; 1 h): 5.08 ± 2.45 % ID/g
Organ distribution, Liver (C4-2 tumour-bearing mice; 1 h): 0.20 ± 0.10 % ID/g
Organ distribution, Lung (C4-2 tumour-bearing mice; 1 h): 0.33 ± 0.13 % ID/g
Organ distribution, Muscle (C4-2 tumour-bearing mice; 1 h): 0.05 ± 0.03 % ID/g
Organ distribution, Small intestine (C4-2 tumour-bearing mice; 1 h): 0.10 ± 0.04 % ID/g
Organ distribution, Spleen (C4-2 tumour-bearing mice; 1 h): 0.16 ± 0.08 % ID/g
Organ distribution, Tumor (C4-2 tumour-bearing mice; 1 h, listed as 203Pb-PSMA-CA012): 8.4 ± 3.7 % ID/g and 8.37 ± 3.67 % ID/g
Organ distribution, Blood (C4-2 tumour-bearing mice; 4 h): 0.05 ± 0.01 % ID/g
Organ distribution, Brain (C4-2 tumour-bearing mice; 4 h): 0.02 ± 0.01 % ID/g
Organ distribution, Heart (C4-2 tumour-bearing mice; 4 h): 0.04 ± 0.02 % ID/g
Organ distribution, Kidneys (C4-2 tumour-bearing mice; 4 h): 1.61 ± 0.28 % ID/g
Organ distribution, Liver (C4-2 tumour-bearing mice; 4 h): 0.09 ± 0.01 % ID/g
Organ distribution, Lung (C4-2 tumour-bearing mice; 4 h): 0.10 ±0.03 % ID/g
Organ distribution, Muscle (C4-2 tumour-bearing mice; 4 h): 0.06 ± 0.03 % ID/g
Organ distribution, Small intestine (C4-2 tumour-bearing mice; 4 h): 0.07 ± 0.05 % ID/g
Organ distribution, Spleen (C4-2 tumour-bearing mice; 4 h): 0.07 ± 0.01 % ID/g
Organ distribution, Tumor (C4-2 tumour-bearing mice; 4 h): 7.81 ±0.86 % ID/g
Organ distribution, Blood (C4-2 tumour-bearing mice; 24 h): 0.03 ± 0.00 % ID/g
Organ distribution, Brain (C4-2 tumour-bearing mice; 24 h): 0.01 ± 0.00 % ID/g
Organ distribution, Heart (C4-2 tumour-bearing mice; 24 h): 0.02 ± 0.00 % ID/g
Organ distribution, Kidneys (C4-2 tumour-bearing mice; 24 h): 0.89 ± 0.14 % ID/g
Organ distribution, Liver (C4-2 tumour-bearing mice; 24 h): 0.10 ± 0.02 % ID/g
Organ distribution, Lung (C4-2 tumour-bearing mice; 24 h): 0.05 ± 0.01 % ID/g
Organ distribution, Muscle (C4-2 tumour-bearing mice; 24 h): 0.02 ± 0.00 % ID/g
Organ distribution, Small intestine (C4-2 tumour-bearing mice; 24 h): 0.02 ± 0.00 % ID/g
Organ distribution, Spleen (C4-2 tumour-bearing mice; 24 h): 0.07 ± 0.02 % ID/g
Organ distribution, Tumor (C4-2 tumour-bearing mice; 24 h): 3.30 ± 1.60 % ID/g
Effective dose [1]: 2.4 mSv/100 MBq
Effective dose equivalent [1]: 3.6 mSv/100 MBq
Equivalent dose, Adrenals [1]: 2.8 mSv/100 MBq
Equivalent dose, Brain [1]: 1.2 mSv/100 MBq
Equivalent dose, Breasts [1]: 1.1 mSv/100 MBq
Equivalent dose, Gallbladder [1]: 2.8 mSv/100 MBq
Equivalent dose, Heart [1]: 1.8 mSv/100 MBq
Equivalent dose, Kidneys [1]: 18.1 mSv/100 MBq
Equivalent dose, Liver [1]: 4.3 mSv/100 MBq
Equivalent dose, Lower large intestine [1]: 2.0 mSv/100 MBq
Equivalent dose, Lungs [1]: 1.6 mSv/100 MBq
Equivalent dose, Muscle [1]: 1.5 mSv/100 MBq
Equivalent dose, Osteogenic cells [1]: 3.7 mSv/100 MBq
Equivalent dose, Pancreas [1]: 2.8 mSv/100 MBq
Equivalent dose, Red marrow [1]: 1.8 mSv/100 MBq
Equivalent dose, Skin [1]: 1.0 mSv/100 MBq
Equivalent dose, Small intestine [1]: 2.1 mSv/100 MBq
Equivalent dose, Spleen [1]: 6.7 mSv/100 MBq
Equivalent dose, Stomach [1]: 2.0 mSv/100 MBq
Equivalent dose, Testes [1]: 1.4 mSv/100 MBq
Equivalent dose, Thymus [1]: 1.4 mSv/100 MBq
Equivalent dose, Thyroid [1]: 1.4 mSv/100 MBq
Equivalent dose, Total body [1]: 1.7 mSv/100 MBq
Equivalent dose, Upper large intestine [1]: 2.1 mSv/100 MBq
Equivalent dose, Urinary bladder [1]: 6.7 mSv/100 MBq

NC(=O)CN1CCN(CC(N)=O)CCN(CC(=O)NC[C@H]2CC[C@H](C(=O)N[C@@H](Cc3ccc4ccccc4c3)C(=O)NCCCC[C@H](NC(=O)N[C@@H](CCC(=O)O)C(=O)O)C(=O)O)CC2)CCN(CC(N)=O)CC1.[212Pb+2] [^212Pb-CA012]
cumulative dose limited by the kidneys (dose-limiting organ) ([2]; preliminary approximation): 400–600 MBq
Equivalent dose, Liver [2, 4]: 0.7 SvRBE5
Equivalent dose, other organs [2, 4]: 0.2 SvRBE5
Tissue equivalent dose, Kidneys [2, 4]: 4.9 SvRBE5
Tissue equivalent dose, Red marrow ([2]; projected from therapeutic activity of 100 MBq, instant decay of daughter nuclides assumed): 0.6 SvRBE5
Effective dose [2, 5]: 415.1 mSv RBE5/100 Mbq
Effective dose equivalent [2, 5]: 748.9 mSv RBE5/100 Mbq
Equivalent dose, Adrenals [2, 5]: 193.1 mSv RBE5/100 Mbq
Equivalent dose, Brain [2, 5]: 190.0 mSv RBE5/100 Mbq
Equivalent dose, Breasts [2, 5]: 190.0 mSv RBE5/100 Mbq
Equivalent dose, Gallbladder [2, 5]: 192.9 mSv RBE5/100 Mbq
Equivalent dose, Heart [2, 5]: 191.3 mSv RBE5/100 Mbq
Equivalent dose, Kidneys [2, 5]: 4906.6 mSv RBE5/100 Mbq
Equivalent dose, Liver [2, 5]: 703.3 mSv RBE5/100 Mbq
Equivalent dose, Lower large intestine [2, 5]: 191.3 mSv RBE5/100 Mbq
Equivalent dose, Lungs [2, 5]: 190.9 mSv RBE5/100 Mbq
Equivalent dose, Muscle [2, 5]: 190.7 mSv RBE5/100 Mbq
Equivalent dose, Osteogenic cells [2, 5]: 3796.4 mSv RBE5/100 Mbq
Equivalent dose, Pancreas [2, 5]: 192.9 mSv RBE5/100 Mbq
Equivalent dose, Red marrow [2, 5]: 615.1 mSv RBE5/100 Mbq
Equivalent dose, Skin [2, 5]: 189.8 mSv RBE5/100 Mbq
Equivalent dose, Small intestine [2, 5]: 191.8 mSv RBE5/100 Mbq
Equivalent dose, Spleen [2, 5]: 1606.7 mSv RBE5/100 Mbq
Equivalent dose, Stomach [2, 5]: 191.8 mSv RBE5/100 Mbq
Equivalent dose, Testes [2, 5]: 190.4 mSv RBE5/100 Mbq
Equivalent dose, Thymus [2, 5]: 190.7 mSv RBE5/100 Mbq
Equivalent dose, Thyroid [2, 5]: 190.5 mSv RBE5/100 Mbq
Equivalent dose, Total body [2, 5]: 237.8 mSv RBE5/100 Mbq
Equivalent dose, Upper large intestine [2, 5]: 191.8 mSv RBE5/100 Mbq
Equivalent dose, Urinary bladder [2, 5]: 200.2 mSv RBE5/100 Mbq
